According to patent US5302610A, “Renal-selective biphenylmethyl imidazole angiotensin II antagonists for treatment of hypertension” (G. D. Searle & Co., priority 1991, dated 1994):

Tests used:
[1] = in vivo; cited from earlier work
angiotensin II = settings: binding experiments, functional assays and in vivo tests; cited from earlier work
guanylate cyclase = settings: cited from earlier work
[2] = system: spontaneously hypertensive rats (SHR); test: Assay D: Mean Arterial Pressure, chronic infusion of conjugate; format: in vivo
Protocol: (§1) This in vivo experiment was conducted to characterize the effects of the Example 81 conjugate on spontaneously hypertensive rats (SHR) by acute administration i.v. and by chronic administration i.v. The Example 81 compound or saline vehicle was infused continuously for four days in SHR. Mean arterial pressure was measured (Gould Chart Recorder, model 3800; Statham P23Db pressure transducer) via an indwelling femoral artery catheter between 10:00 A. M. and 2:00 P. M. each day. The Example 81 conjugate (10 mg/hr) or saline was infused via a jugular vein catheter with a Harvard infusion pump. […] A test was conducted to determine whether the Example 81 conjugate would antagonize non-renal, vascular angiotensin II receptors. In this test AII was administered by bolus injection (100 ng/kg) to the SHR rats (described above) on the control day and on days 1, 2 and 3 during conjugate infusion.

[3] = system: non-renal, vascular angiotensin II receptors; test: Assay D: AII Pressor Response during chronic infusion of conjugate; format: in vivo, spontaneously hypertensive rats (SHR); settings: for AII Pressor Response (MAP): AII 100 ng/kg bolus
Protocol: as §1

[4] = system: response to angiotensin II (urinary sodium excretion); test: Assay E: Urinary Sodium Excretion, acute administration with AII infusion; format: in vivo, male Sprague-Dawley rats, conscious; settings: for Urinary Sodium Excretion: means±SE
Protocol: (§2) antagonist compound (Ex. #5) and a glutamyl conjugate (Ex. #81) of the Ex. #5 AII antagonist compound to determine the renal selectivity of the conjugate. Male Sprague-Dawley rats (300-350 g body weight) had catheters implanted into the femoral artery and vein under chloral hydrate anesthesia (400 mg/kg, i.p.). After 2 to 4 days of recovery, on the experimental day, a urinary bladder catheter was implanted under methohexital anesthesia (50 mg/kg, i.p.). Rats were placed in a restraint device to allow for urine collection and mean arterial pressure measurements. After 1-2 hours of recovery, in conscious rats, an isotonic saline infusion (50 μl/min) was started and continued for the duration of the experiment. After one hour equilibration to the saline infusion, a 20 minute control urine and mean arterial pressure collection were obtained. Then angiotensin II was infused at 20 ng/min for 25 minutes. After 5 minutes of angiotensin II infusion, a 20 minute experimental collection was made. Finally, 5 minutes after the end of angiotensin II infusion, a 20 minute recovery collection was obtained. In separate groups of rats, vehicle (0.3 ml isotonic saline, i.v. bolus), Example #5 angiotensin II antagonist compound (100 mg/kg, i.v. bolus), or Example #81 conjugate (100 mg/kg, i.v. bolus) was administered 1-2 minutes prior to onset of angiotensin II infusion. […] Results are shown in Tables XIII and XIV and also in FIGS. 3 and 4. Data are presented as means±SE. Repeated measures analysis of variance was used for main effects and interactions and Tukey's HSD test was used for pairwise comparisons among means. Statistical significance was defined as p<0.05.

[5] = system: response to angiotensin II (mean arterial pressure); test: Assay E: Mean Arterial Pressure, acute administration with AII infusion; format: in vivo, male Sprague-Dawley rats, conscious; settings: for Mean Arterial Pressure: n = 6, means±SE
Protocol: as §2

[6] = system: γ-glutamyl transpeptidase; settings: dogs; cited from earlier work
angiotensin II receptors = settings: cited from earlier work
kidney = settings: normal subjects; cited from earlier work
dopa-decarboxylase = settings: in vivo; cited from earlier work
[7] = Control day (baseline before infusion)
[8] = 100 mg/kg i.v. bolus, Recovery after AII infusion
[9] = 100 mg/kg i.v. bolus, during AII infusion 20 ng/min, * in table
[10] = 100 mg/kg, i.v. bolus, AII 20 ng/min

Question: With `CCCCc1ccc(NNC(=O)CCC(NC(C)=O)C(=O)O)nc1` (stereo not drawn) as the molecule, how does the renal vasodilation [1] read?
Answer: The renal vasodilation was “provided selective renal vasodilation”.

Question: Which “angiotensin II antagonist activity” value (angiotensin II) does the source give for `CCCCc1nc(Cl)c(CC(=O)O)n1Cc1ccccc1[N+](=O)[O-]` [2-butyl-4-choloro-1-(2-nitrobenzyl)imidazole-5-acetic acid] here?
Answer: The value was “specific competitive angiotensin II antagonist activity”.

Question: Which guanylate cyclase activity (guanylate cyclase) does the source give for `CCCCc1ccc(NN)nc1` [2-hydrazino-5-n-butylpyridine] here?
Answer: The guanylate cyclase activity was “stimulates guanylate cyclase activity”.

Question: For `CCCCc1nc(Cl)c(CC(=O)O)n1Cc1ccccc1Cl` [2-n-butyl-4-chloro-1-(2-chlorobenzyl)imidazole-5-acetic acid], which “angiotensin II antagonist activity” value (angiotensin II) is on record?
Answer: The value was “specific competitive angiotensin II antagonist activity”.

Question: Which results are given for `CCCCc1nc(Cl)c(CO)n1Cc1ccc(-c2ccccc2C(=O)NNC(=O)CC[C@H](NC(C)=O)C(=O)O)cc1` [Example 81, N-acetyl-L-glutamic acid, 5-[[4'-[2-butyl-4-chloro-5-(hydroxymethyl)-1H-imidazol-1-ylmethyl][1,1'-biphenyl]-2-yl]carbonyl]hydrazide]?
Answer: mean arterial pressure as compared to saline vehicle control ([2]; 10 mg/hr i.v. infusion, SHR): lowered mean arterial pressure as compared to the saline vehicle control; Mean Arterial Pressure (MAP) ([2]; 10 mg/hr i.v. infusion, day 1): 148 mm Hg; Mean Arterial Pressure (MAP) ([2]; 10 mg/hr i.v. infusion, day 2): 135 mm Hg; Mean Arterial Pressure (MAP) ([2]; 10 mg/hr i.v. infusion, day 3): 140 mm Hg; Mean Arterial Pressure (MAP) [2, 7]: 163 mm Hg; systemic angiotensin II receptor antagonism ([3]; 10 mg/hr i.v. infusion, days 1, 2 and 3): No evidence for systemic angiotensin II receptor antagonism was observed; AII Pressor Response (MAP) ([3]; 10 mg/hr i.v. infusion, day 1): 45 mm Hg; AII Pressor Response (MAP) ([3]; 10 mg/hr i.v. infusion, day 2): 65 mm Hg; AII Pressor Response (MAP) ([3]; 10 mg/hr i.v. infusion, day 3): 60 mm Hg; AII Pressor Response (MAP) [3, 7]: 44 mm Hg; Urinary Sodium Excretion [4, 8]: 1.8 ± 0.4 μEq/min/100 g BW; Urinary Sodium Excretion [4, 9]: 4.1 ± 1.3 μEq/min/100 g BW; antinatriuretic (urinary sodium excretion) response to angiotensin II [4, 10]: prevented the antinatriuretic response to angiotensin II; urinary sodium excretion during angiotensin II infusion [4, 10]: actually increased urinary sodium excretion; Urinary Sodium Excretion ([4]; Control period (before dosing)): 1.3 ± 0.3 μEq/min/100 g BW; Mean Arterial Pressure [5, 8]: 121 ± 4 mm Hg; Mean Arterial Pressure [5, 9]: 151 ± 4 mm Hg; mean arterial pressure response to angiotensin II [5, 10]: had no effect on the mean arterial pressure response; Mean Arterial Pressure ([5]; Control period (before dosing)): 117 ± 3 mm Hg

Question: With `N[C@@H](CCC(=O)NCCc1ccc(O)c(O)c1)C(=O)O` [L-γ-glutamyl amide of dopamine] as the molecule, how does the “generation of dopamine in vivo” value [6] read?
Answer: The value was “generate dopamine in vivo by specific enzymatic cleavage by γ-glutamyl transpeptidase”.

Question: For `CNCC(=O)N[C@@H](CCCN=C(N)N)C(=O)N[C@H](C(=O)N[C@@H](Cc1ccc(O)cc1)C(=O)N[C@H](C(=O)N[C@@H](Cc1cnc[nH]1)C(=O)N1CCC[C@H]1C(=O)N[C@@H](C)C(=O)O)C(C)C)C(C)C` [Saralasin], which residual agonist activity (angiotensin II receptors) is on record?
Answer: Its residual agonist activity is “have a significant residual agonist activity”.

Question: Which results are given for `N[C@@H](CCC(=O)N[C@@H](Cc1ccc(O)c(O)c1)C(=O)O)C(=O)O` [gludopa, γ-L-glutamyl-L-dopa]?
Answer: kidney specificity (kidney): relatively specific for the kidney; renal blood flow, glomerular filtration and urinary sodium excretion (kidney): increase renal blood flow, glomerular filtration and urinary sodium excretion in normal subjects; blockade of activity by the dopa-decarboxylase inhibitor carbidopa (dopa-decarboxylase): activity can be blocked by the dopa-decarboxylase inhibitor carbidopa

Question: With “angiotensin II: an octapeptide which is the primary active species of this system (DRVYIHPF; Angiotensin-2; UniProt P01019 25-32, looked up) [reference compound]” as the molecule, how does the “effect of angiotensin II infusion on urinary sodium excretion” value ([4]; AII 20 ng/min for 25 minutes) read?
Answer: Its value is “decreased urinary sodium excretion”.

Question: What about the “effect of angiotensin II infusion on mean arterial pressure” value ([5]; AII 20 ng/min for 25 minutes) of the same molecule?
Answer: Its value is “increased mean arterial pressure”.
